The test system of data set [1] is HL 60 cells. The data set can be described thus: Antiproliferative test: inhibition of growth of HL 60 cells. Type of data set: cell-based. The settings on record: concentrations 0.5 to 1 mM. The protocol: The tests were carried out on stabilized cell lines (HL 60 and others) in the absence of growth factors. The concentrations of butyric derivatives vary from 0.5 to 1 mM.
The following parameters were evaluated by "FASC Scan" scanning and flow cytometry:
incorporation of tritiated thymidine (exploration of cell metabolism);
incorporation of propylium iodide (determination of the phase of the cell cycle);

For data set [2] the following is noted: cited from earlier work.
Data set [3] deals with foetal haemoglobin, in particular the γ chain. The settings on record: acids and their salts, cited from earlier work; for synthesis of foetal haemoglobin: in particular γ chain.
For data set [4], the system named is γ chain of the haemoglobin. The data set can be described thus: Level of γ chain of the haemoglobin in erythroleukaemic cell lines. The class given is cell-based. The settings on record: 0.70 mM (α-MAM-A), 0.35 mM (Xyli-C); for level of γ chain of the haemoglobin in the presence of A.P.A.A.P.: 10% without ester; for increase in level of γ chain of the haemoglobin: erythroleukaemic cell lines, normal human serum. The protocol:
The following parameters were evaluated: level of γ chain of the haemoglobin (immunological quantitative determination by double antigen antibody reaction and by immunocytochemical quantitative determination in the presence of alkaline phosphatase-anti-alkaline phosphatase A.P.A.A.P.);

For data set [5] the following is noted: cited from earlier work. The source holds these as a separate data set.
For data set [6] the following is noted: 95 hours, cited from earlier work.

Structures are written as SMILES.

Take `CCCC(=O)OCC1OC(C)(C)OC1C(O)CO` (stereo not drawn) [MAXyli-C, 1-O-n-butanoyl-2,3-O-isopropylidenexylitol]: the “% of inhibition of growth HL 60” value in data set [1] (3 d.) amounted to 80%; in data set [1] (4 d.) it was 90%.
On to `CCCC(=O)O` [n-butyric acid], for which the “in vivo plasma lifetime” value in data set [2] is given as “very short in vivo plasma lifetime”. Also, in data set [3], the “γ gene of human foetal haemoglobin” value is reported as “induce the γ gene of human foetal haemoglobin” and the “synthesis of foetal haemoglobin” value is listed as “stimulate the synthesis of foetal haemoglobin”.
Take `CCCC(=O)O[C@H]1O[C@H]([C@H](O)CO)[C@@H]2OC(C)(C)O[C@H]12` [α-MAM-A, O-n-butanoyl-2,3-O-isopropylidene-α-D-mannoside]: in data set [4], the “level of γ chain of the haemoglobin in the presence of A.P.A.A.P.” value is given as 22% and the “increase in level of γ chain of the haemoglobin” value is “increase the level of γ chain of the haemoglobin”. The “% of inhibition of growth HL 60” value in data set [1] (2 d.) was 40%. Moreover, the “% of inhibition of growth HL 60” value in data set [1] (5 d.) is given as 80%.
As for `CCCC(=O)O[C@@H]1[C@H]2OC(C)(C)O[C@H]2O[C@@H]1[C@H](O)CO` [3-O-n-butanoyl-1,2-O-isopropylidene-α-D-glucofuranose], the “internal transesterification in solution” value in data set [5] is recorded as “undergoes an internal transesterification”. In data set [6] (pH=8.1, 25° C.), the “5-O-n-butanoyl isomer in the non-deesterified fraction” value is given as 4%, the “6-O-n-butanoyl isomer in the non-deesterified fraction” value is reported as 90% and the “initial ester in the non-deesterified fraction” value is given as 6%. The deesterification in data set [6] (same conditions (pH=8.1, 25° C.), Goueth et al.) is given as 20%.
As to `O=C(O)Cc1ccccc1` [phenylacetic acid], in data set [3], the “γ gene of human foetal haemoglobin” value was “induce the γ gene of human foetal haemoglobin” and the “synthesis of foetal haemoglobin” value is reported as “stimulate the synthesis of foetal haemoglobin”.
For the molecule `O=C(O)CCCc1ccccc1` [4-phenylbutyric acid], in data set [3], the “γ gene of human foetal haemoglobin” value was “induce the γ gene of human foetal haemoglobin” and the “synthesis of foetal haemoglobin” value is on record as “stimulate the synthesis of foetal haemoglobin”.
As to `CCCC(=O)OC[C@H](O)[C@@H](O)[C@H](O)CO` [Xyli-C, 1-O-n-butanoylxylitol], in data set [4], the “level of γ chain of the haemoglobin in the presence of A.P.A.A.P.” value was 17% and the “increase in level of γ chain of the haemoglobin” value is listed as “increase the level of γ chain of the haemoglobin”. For the same molecule, the “% of inhibition of growth HL 60” value in data set [1] (5 d.) turned out to be 70%.

Values taken from patent US5830872A, “Esters of D-mannose or of xylitol and their use as medicaments” (L'Associazione di volontariato "Pro La Fondazione Futuro …, priority 1994, dated 1998).
